Test results reported in patent publication US8637321B2, “Lipidomics approaches for central nervous system disorders” (priority 2005, dated 2014).

Tests used:
[1] = test system: patients with schizophrenia; assay: plasma lipid profiling pre- and post-treatment with antipsychotics; assay type: in vivo, human; on CE18:3n3 I/D: key: I: increase; D: decrease; on DG18:3n6 I/D: key: I: increase; D: decrease; on FA.SFA I/D: key: I: increase; D: decrease; on FA16:0 I/D: key: I: increase; D: decrease; on FA18:0 I/D: key: I: increase; D: decrease; on FA20:4n6 I/D: key: I: increase; D: decrease; on FA20:5n3 I/D: key: I: increase; D: decrease; on FA24:0 I/D: key: I: increase; D: decrease; on LY.n9 I/D: key: I: increase; D: decrease; on LY18:0 I/D: key: I: increase; D: decrease; on LY18:1n9 I/D: key: I: increase; D: decrease; on LY18:3n6 I/D: key: I: increase; D: decrease; on LY20:1n9 I/D: key: I: increase; D: decrease; on LY20:2n6 I/D: key: I: increase; D: decrease; on LY20:3n9 I/D: key: I: increase; D: decrease; on LY20:4n3 I/D: key: I: increase; D: decrease; on LYLC I/D: key: I: increase; D: decrease; on PC.n9 I/D: key: I: increase; D: decrease; on PC14:0 I/D: key: I: increase; D: decrease; on PC16:1n7 I/D: key: I: increase; D: decrease; on PC18:0 I/D: key: I: increase; D: decrease; on PC18:1n9 I/D: key: I: increase; D: decrease; on PC18:3n3 I/D: key: I: increase; D: decrease; on PC18:3n6 I/D: key: I: increase; D: decrease; on PC20:2n6 I/D: key: I: increase; D: decrease; on PC20:3n9 I/D: key: I: increase; D: decrease; on PC20:4n3 I/D: key: I: increase; D: decrease; on PC20:5n3 I/D: key: I: increase; D: decrease; on PCLC I/D: key: I: increase; D: decrease; on PE.n9 I/D: key: I: increase; D: decrease; on PE18:1n9 I/D: key: I: increase; D: decrease; on PELC I/D: key: I: increase; D: decrease; on TG14:0 I/D: key: I: increase; D: decrease; on TG14:1n5 I/D: key: I: increase; D: decrease; on TG18:0 I/D: key: I: increase; D: decrease; on TG18:3n6 I/D: key: I: increase; D: decrease; on TG20:0 I/D: key: I: increase; D: decrease; on TG20:3n6 I/D: key: I: increase; D: decrease; on TG20:4n3 I/D: key: I: increase; D: decrease; on TG20:5n3 I/D: key: I: increase; D: decrease
Description: (§1) Fifty male and female patients were recruited in two studies for metabolic profiling (Table VI and Table VII for demographics). Subjects ranged in age from 18 to 60 years and met the following inclusion criteria: a) DSM-IV criteria for schizophrenia, schizophreniform disorder, or schizoaffective disorder; b) newly hospitalized for a psychotic exacerbation in the setting of no antipsychotic treatment for at least 3 weeks prior to admission; and c) provided signed informed consent. Patients with psychoses due to psychoactive substance abuse or an underlying medical condition were excluded. Patients who were receiving treatment for diabetes mellitus or hyperlipidemia were also excluded.
The choice and dose of antipsychotic medication was based on the doctor's judgment. […] The treatment duration was 2-3 weeks. […] The mean duration of therapy was about 2 weeks for all 3 drugs in Study II. The drug groups were otherwise generally similar in severity of disease and physical characteristics (Table VI and Table VII). The 2-3 week duration permits the study of acute early effects.
All blood samples were drawn from subjects in the early morning after overnight fasting. Blood was drawn into vacutainer tubes containing sodium heparin, immediately placed on ice, and within 10 minutes, the blood was centrifuged and the plasma was transferred into polypropylene tubes and stored in a −30° C. freezer. All baseline samples were drawn prior to starting antipsychotic treatment in the study. If a patient had received a dose of an antipsychotic during the referral process (e.g., because of agitation when initially seen in a local emergency department), drawing of baseline plasma samples was delayed for 2-3 days. Follow-up samples were drawn after patients had received an average of 2-3 weeks of acute antipsychotic treatment.
A comprehensive assessment of plasma lipid profiles was performed (Lipomics Technologies, West Sacramento, Calif.) according to established methods (Watkins, et al. (2002) J. Lipid Res. 43(11):1809-17). Quantitative measurements of fatty acids in various lipid classes were determined as nmol fatty acid/gram of plasma. Lipid classes included cholesterol esters (CE), free cholesterol (FC), triacylglycerols (TG), diacylglycerols (DG), free fatty acids (FA), lysophosphatidylcholine (LY), phosphatidylcholine (PC), and phosphatidylethanolamine (PE). Lipid metabolites are identified by the lipid class and the fatty acid moiety. In the context of this invention, fatty acids are identified first by the number of carbons in the molecule (e.g., 20), the number of double bonds in the molecule (e.g., 4), and lastly the position of the double bonds (e.g., n6). To illustrate, PC20:4n6 denotes a phosphatidylcholine molecule containing a 20 carbon fatty acid with 4 double bonds at the n6 position.
Significant differences between pre- and post-drug treatment were assessed by paired t-tests. Evaluation of response to drug was assessed by two-way ANOVA. All statistics were done using R with the following functions: t.test, anova, prcomp, and g/m (Team RDC (2005) R: A language and environment for statistical computing. R Foundation for Statistical Computing). Before beginning statistical analyses, change detection was used to determine if observed signals were greater than that which could be expected by chance (noise). The chance distribution of p-values was determined by permuting the outcome groupings (Golub, et al. (1999) Science 286(5439):531-7). Briefly, P values for the appropriate comparison were calculated for each metabolite using a Student's t-test. The metabolites were ranked by p value from smallest to largest. The log of the rank versus the log of the p value for each comparison of interest was plotted and is represented by a colored line. The distribution of p values expected by chance at each rank is indicated by the shaded area. […]

[2] = test system: patients with schizophrenia; assay: Clinical Global Impressions (CGI) Scale psychopathology assessment; assay type: in vivo, human; settings: means and standard error; for CGI Affective, Post / CGI Negative, Post / CGI Positive, Post: CGI Scale 1 to 7, higher scores greater severity; for CGI Change, Post: overall global change rating at follow-up (1-2 responders, 3-6 non-responders)
Description: as §1
The choice and dose of antipsychotic medication was based on the doctor's judgment. […] The treatment duration was 2-3 weeks. […] The 2-3 week duration permits the study of acute early effects.
Psychopathology was assessed on the Clinical Global Impressions (CGI) Scale at baseline and at the time of follow-up blood draws. Scores for the CGI Scale can range from 1 to 7, with higher scores indicating greater severity of illness (Guy (1975) ECDEU Assessment Manual for Psychopharmacology: Publication ADM 76-338. Washington, D.C.: US Department of Health, Education, and Welfare). An overall global change rating was also made at the time of the follow-up blood draw.

[3] = test system: fatty acid elongation and desaturation (delta 5 desaturase, delta 6 desaturase, elongase); assay: pathway analysis: lipid synthesis enzyme activities estimated from fatty acid ratios; assay type: in vivo, human
Protocol: Estimates of lipid synthesis enzyme activities were calculated using the precursor to product ratios for each enzyme. The following ratios were used: 18:3n6/18:2n6 for delta 6 desaturase; 20:3n6/18:3n6 for delta 6 elongase; 20:4n6/20:3n6 for delta 5 desaturase; 22:4n6/20:4n6 for elongase; 24:4n6/22:4n6 for elongase; 24:5n6/24:4n6 for delta 6 desaturase. The absolute numbers for each fatty acid metabolite were used for calculating metabolite changes.
To characterize fatty acid elongation and desaturation processes that might be modified in schizophrenia, various ratios of products to substrates in different fatty acid pathways were determined and are summarized in Table VIII.

[4] = cited from earlier work
[5] = Study I, plasma, post-treatment vs pre-treatment
[6] = Study II, plasma, post-treatment vs pre-treatment
[7] = plasma, mole percentage data, post treatment compared with pretreatment
[8] = plasma, total lipid class data (nmol/g sample), post treatment compared with pretreatment
[9] = Study I, after 2-3 weeks treatment
[10] = Study II, about 2 weeks treatment

Cc1nc2n(c(=O)c1CCN1CCC(c3noc4cc(F)ccc34)CC1)CCCC2 [Risperidone, risperidone]
concentration of arachidonic acid, AA (20:4n6) ([1]; Study I, plasma lipid classes, post-treatment vs pre-treatment): not significantly altered
CE concentration [1, 5]: trend toward an increase
DG concentration [1, 5]: trend toward an increase
FA (free fatty acid) class concentration [1, 5]: decrease
LY class concentration [1, 5]: increase
PC class concentration [1, 5]: increased
PE class concentration [1, 5]: increased
TG concentration [1, 5]: trend toward an increase
concentration of linoleic acid (18:2n6) and its immediate metabolic products 18:3n6 and 20:3n6 [1, 5]: increased
concentration of saturated fatty acids in PE, PC and LY [1, 5]: increased
concentration of total n6 and n3 fatty acids in PE, PC and LY [1, 5]: increased
n7 and n9 free fatty acids [1, 5]: decreases
DG concentration [1, 6]: significantly increased
PC18:3n6 concentration [1, 6]: increased
PC20:2n6 concentration [1, 6]: increased
PC20:3n6 concentration [1, 6]: increased
PC concentration [1, 6]: increased
PE concentration [1, 6]: increased
TG concentration [1, 6]: significantly increased
concentration of PC20:4n6 (arachidonic acid) [1, 6]: did not change
reduction in 18:0 in patients with schizophrenia ([1]; after treatment, FIG. 1): essentially reversed
triacylglycerol and phospholipid content of the plasma ([1]; following treatment): increased
fatty acid synthesis ([1]; inferred from 16:1n7, 18:1n7 and 18:1n9 concentrations): less evident
CE18:3n3 I/D [1, 7]: I
DG18:3n6 I/D [1, 7]: I
FA16:0 I/D [1, 7]: I
FA18:0 I/D [1, 7]: I
FA20:4n6 I/D [1, 7]: I
FA20:5n3 I/D [1, 7]: I
FA24:0 I/D [1, 7]: I
FA.SFA I/D [1, 7]: I
LY18:0 I/D [1, 7]: I
LY18:1n9 I/D [1, 7]: I
LY18:3n6 I/D [1, 7]: I
LY20:1n9 I/D [1, 7]: I
LY20:2n6 I/D [1, 7]: I
LY20:3n9 I/D [1, 7]: I
LY20:4n3 I/D [1, 7]: I
LY.n9 I/D [1, 7]: I
PC14:0 I/D [1, 7]: I
PC16:1n7 I/D [1, 7]: I
PC18:0 I/D [1, 7]: I
PC18:1n9 I/D [1, 7]: I
PC18:3n3 I/D [1, 7]: I
PC18:3n6 I/D [1, 7]: I
PC20:2n6 I/D [1, 7]: I
PC20:3n9 I/D [1, 7]: I
PC20:4n3 I/D [1, 7]: I
PC20:5n3 I/D [1, 7]: I
PC.n9 I/D [1, 7]: I
PE18:1n9 I/D [1, 7]: I
PE.n9 I/D [1, 7]: I
TG14:0 I/D [1, 7]: I
TG14:1n5 I/D [1, 7]: I
TG18:0 I/D [1, 7]: I
TG18:3n6 I/D [1, 7]: I
TG20:0 I/D [1, 7]: I
TG20:3n6 I/D [1, 7]: I
TG20:4n3 I/D [1, 7]: I
TG20:5n3 I/D [1, 7]: I
LYLC I/D [1, 8]: I
PCLC I/D [1, 8]: I
PELC I/D [1, 8]: I
levels of arachidonic and docosahexaenoic acids (20:4n6 and 22:6n3) ([1]; present studies, after treatment): remained essentially the same
CGI Affective, Post [2, 9]: 1.7 ± 0.3
CGI Negative, Post [2, 9]: 2 ± 0.4
CGI Positive, Post [2, 9]: 2.6 ± 0.2
CGI Change, Post ([2]; Study I): 2.9 ± 0.3
CGI Affective, Post [2, 10]: 1.2 ± 0.2
CGI Negative, Post [2, 10]: 1.4 ± 0.2
CGI Positive, Post [2, 10]: 3 ± 0.3
CGI Change, Post ([2]; Study II): 3 ± 0.3
apparent delta 5 desaturase activity ([3]; estimated from 20:4n6/20:3n6 in phosphatidylcholine, FIGS. 5A and 5B): decreased
alterations of fatty acid ratios in patients with schizophrenia ([3]; following treatment): essentially reversed toward normal ranges
effect on serum lipids ([4]; in vivo): discrepant data
weight gain, mean increases during the first year of therapy ([4]; prospective data): 4.4-5.1 lbs
